# Entries after “also recorded” stand apart in the source; their conditions may differ. Where two headings read alike, the source gives them in different places.
# How the values were obtained:
# [1] = system: AquaOBP4; assay: Fluorescence competitive binding assay with 1-NPN reporter; parameters: species or system Ambrostoma quadriimpressum; conditions: for binding to AquaOBP4 (1-NPN displacement): first-round screening
# Text: Binding affinity was primarily tested with a panel of 40 A. quadriimpressum habitat-related compounds, most of which are abundantly distributed in elms and A. quadriimpressum. Additionally, one newly identified repellent, cinnamaldehyde, was included[25],[27],[28]. After the molecular model of AquaOBP4 was established, we selected two additional compounds, which also came from elms and A. quadriimpressum, for model validation. All of the compounds were purchased from Sigma-Aldrich (Millipore Sigma, USA) with purities of greater than 95%. The CAS numbers, structures and sources of the tested compounds are listed in Table 2, and detailed information (including content) for each odorant is provided in Table S1.
# N-phenyl-1-naphthylamine (1-NPN) was used as a reporter to measure the affinity of the fluorescent 1-NPN ligand to proteins. The fluorescence spectra were recorded using a Fluoromax-4 spectrofluorometer (HORIBA Jobin Yvon, New York, USA) with 2 µM protein in 50 mM ammonium acetate (pH 7.2) at room temperature; the compounds and 1-NPN were dissolved in high-performance liquid chromatography (HPLC)-grade methanol at a concentration of 1 mM. Parameter selection was such that the slit widths for both excitation and emission were 10 nm. The reporter was excited at 337 nm, and the emission spectra were recorded between 380 and 500 nm. The AquaOBP4 saturation curve was tested using 1-NPN at 2 to 14 µM, and the affinities of the compounds were estimated using 2 µM 1-NPN and 10 to 70 µM concentrations of the compounds. The curves were then linearized using Scatchard plots. IC50 and Kd values were analyzed using Prism 6 (GraphPad Software, USA), and Ki values were calculated using the following equation: Ki = [IC50]/1 + [1-NPN]/Kd, where [1-NPN] is the concentration of dissociative 1-NPN and Kd is the dissociation constant of the protein/1-NPN complex. To investigate the response of AquaOBP4 at low pH, the fluorescence binding affinity between AquaOBP4 and one of the best ligands was measured at pH 5. Then, 50 mM ammonium acetate (pH 5) was used as a buffer to dissolve the AquaOBP4 protein.
# [2] = system: antennae of A. quadriimpressum; assay: Electroantennogram (EAG) responses of binding odorants; assay type: in vivo, Ambrostoma quadriimpressum; conditions: 0.1, 1 and 10 µg/µl in paraffin oil; normalized to negative control
# [3] = system: A. quadriimpressum; parameters: method as in doi:10.1653/024.099.0212; conditions: cited from earlier work
# [4] = system: antennae of A. quadriimpressum; parameters: method as in previous results of the authors; conditions: ref previous results of the authors; cited from earlier work
# [5] = system: A. quadriimpressum adults; assay: Y-tube olfactometer behavioral test; assay type: in vivo, Ambrostoma quadriimpressum; conditions: 10 µg/µl in paraffin oil (methods), 1 µg/µl; vs paraffin oil control; N = 90
# Procedure: The responses of A. quadriimpressum to the three best ligands were assessed in a Y-tube olfactometer. The compounds were tested at an intermediate concentration of 10 µg/µl in paraffin oil. In these assays, 20 μl of the odorant was applied to a piece of filter paper (25 × 25 mm), which was then placed in one of the olfactometer arms. In the other arm, 20 μl of paraffin oil was used as a negative control. Thirty beetles (15 males and 15 females) were individually tested, with three replicates for each individual (for a total of 90 replicates). A red light source was used in the darkroom to avoid light interference. For the Y-tube (1-cm diameter, 100-cm base length, 10-cm arm length), one small hole was cut into the base of the Y-tube at 10 cm for releasing beetles. The source of the air that passed through the Y-tube was a pressurized tank of pure air. The air was first filtered through active carbon and then humidified by bubbling it through a bottle filled with double-distilled (dd) water before entering the Y-tube. The air flow traveled through both arms of the Y-tube olfactometer at a speed of 300 ml/min. Each individual beetle was placed at the entrance of the olfactometer (Fig. 1), and their “choice” was recorded when the beetle entered an arm and remained there for 30 s. If an insect made no choice within 3 min, the result was recorded as “no-choice”. […]
# [6] = Table 3, pH 7.2, 2 µM 1-NPN, 2 µM protein, compounds 10 to 70 µM
# [7] = Table 3 and text, pH 7.2, 2 µM 1-NPN, calculated from IC50
Compound,binding to AquaOBP4 (1-NPN displacement) ([1]; pH 7.2),pKi ([1]; Table 4),"IC50 ([1]; Table 4, pH 7.2, 2 µM 1-NPN) [µM]","Ki ([1]; Table 4, pH 7.2, 2 µM 1-NPN) [µM]","IC50 [1, 6] [µM]","Ki [1, 7] [µM]",other results
"CC(=O)Oc1ccccc1 [Acetic acid, Phenyl ester]",did not bind,–,–,–,–,–,–
"c1ccc(Nc2cccc3ccccc23)cc1 [1-NPN, N-phenyl-1-naphthylamine, reference compound]",–,–,–,–,–,–,"Kd ([1]; pH 5): 1.49 ± 0.08 µM; Kd ([1]; pH 7.2, 2 µM protein, 1-NPN 2 to 14 µM): 2.27 ± 0.16 µM"
COC(=O)c1ccccc1 [Methyl benzoate],did not bind; also recorded: no binding,–,–,–,–,–,–
CCCCCCCCOC(=O)c1ccccc1C(=O)OCCCC [Butyl octyl phthalate],–,4.90,23.9,12.7,–,–,"EAG response [2]: strong EAG responses; Ki ([1]; Figure 6 legend, 1-NPN 2 μM): 12.7 µM; Ki ([1]; pH 5): 16.8 µM"
CC(=O)/C=C/C1=C(C)CCCC1(C)C [β-Ionone],–,4.52,56.6,–,56.6,30.1,–
O=C/C=C/c1ccccc1 [Cinnamaldehyde],–,4.10,149,79.3,149,79.3,repellent / antifeedant effect against A. quadriimpressum [3]: strong repellent; repellent / antifeedant effect against A. quadriimpressum ([3]; listed as cinnamaldehyde): antifeedant; physiological response on the antennae of A. quadriimpressum [4]: strong physiological response
CC/C=C\CCOC(=O)c1ccccc1 [cis-3-Hexenyl benzoate],–,4.46,65.8,–,65.8,35,–
Isoeugenol,–,3.77,321,171,–,–,–
CC/C=C\CCOC(C)=O [Leaf acetate],no binding,–,–,–,–,–,–
CC(C)COC(=O)c1ccccc1C(=O)OCC(C)C [Diisobutyl phthalate],–,4.57,50.4,26.8,50.4,26.8,EAG response [2]: strong EAG responses
CCCCOC(=O)c1ccccc1C(=O)OCCCC [Dibutyl phthalate],–,4.62,45.6,–,45.6,24.2,attraction of A. quadriimpressum adults in Y-tube olfactometer [5]: slightly higher attractiveness; EAG response [2]: strong EAG responses
COC(=O)c1ccccc1O [Methyl salicylate],did not bind,–,–,–,–,–,–
